From US20040157845A1, “Vanilloid receptor ligands and their use in treatments” (Amgen Inc., priority 2003, published 2004)
Counter-ions that a name gives are not always drawn.

| melting point [°C] | SMILES |
| --- | --- |
| 210 to 212 | CC(C)c1ccc(NC(=O)c2cnc(Cc3c(Cl)cccc3Cl)[nH]2)cc1 (as salt: hydrochloride) [Example 12, {2-[(2,6-Dichlorophenyl)methyl]imidazol-5-yl}-N-[4-(methylethyl)phenyl]-carboxamide] |
| 253 to 254 | O=C(Nc1ccc(Br)cc1)c1cnc(Cc2c(Cl)cccc2Cl)[nH]1 (as salt: hydrochloride) [Example 13, {2-[(2,6-Dichlorophenyl)methyl]imidazol-5-yl}-N-(4-bromophenyl)carboxamide] |
| 99 to 101 | O=C(Nc1ccc(C(F)(F)F)nc1)c1csc(Cc2ccccc2Cl)n1 [Example 1, {2-[(2-Chlorophenyl)methyl](1,3-thiazol-4-yl)}-N-[6-(trifluoromethyl)(3-pyridyl)]carboxamide] |
| 195 to 197 | O=C(Nc1ccc(C(F)(F)F)cc1)c1csc(Nc2c(Cl)cncc2Cl)n1 [Example 2, {2-[(3,5-Dichloro(4-pyridyl))amino](1,3-thiazol-4-yl)}-N-[4-(trifluoromethyl)-phenyl]carboxamide] |
| 216 to 218 | Cc1cccc(C)c1Nc1nc(C(=O)Nc2ccc(C(F)(F)F)cc2)cs1 [Example 3, {2-[(2,6-Dimethylphenyl)amino](1,3-thiazol-4-yl) }-N-[4-(trifluoromethyl)-phenyl]carboxamide] |
| 250 to 251 | Cc1cccc(C)c1Nc1nc(-c2nc3cc(C(F)(F)F)ccc3[nH]2)cs1 [Example 4, (2,6-Dimethylphenyl){4-[5-(trifluoromethyl)benzimidazol-2-yl](1,3-thiazol-2-yl)}amine] |
| 207 to 208 | FC(F)(F)c1ccc2[nH]c(-c3csc(Nc4ncccc4Cl)n3)nc2c1 [Example 6, (3-Chloro(2-pyridyl)){4-[5-(trifluoromethyl)benzimidazol-2-yl](1,3-thiazol-2-yl)}amine] |
| 180 to 183 | Cc1nc(Cc2c(Cl)cccc2Cl)sc1C(=O)Nc1ccc(C(F)(F)F)cc1 [Example 7, {2-[(2,6-Dichlorophenyl)methyl]-4-methyl(1,3-thiazol-5-yl)}-N-[4-(trifluoromethyl)phenyl]carboxamide] |
| 187 to 189 | FC(F)(F)c1ccc2nc(-c3csc(Cc4c(Cl)cccc4Cl)n3)[nH]c2c1 [Example 8, 2-[(2,6-Dichlorophenyl)methyl]-4-[6-(trifluoromethyl)benzimidazol-2-yl]-1,3-thiazole] |
| 169 to 175 | CC(C)c1ccc(NC(=O)c2cnc(Cc3c(Cl)cccc3Cl)s2)cc1 [Example 9, {2-[(2,6-Dichlorophenyl)methyl](1,3-thiazol-5-yl)}-N-[4-(methylethyl)phenyl]-carboxamide] |
| 163 to 164 | O=C(Nc1ccc(C(F)(F)F)cc1)c1cnc(Cc2c(Cl)cccc2Cl)s1 [Example 10, {2-[(2,6-Dichlorophenyl)methyl](1,3-thiazol-5-yl)}-N-[4-(trifluoromethyl)-phenyl]carboxamide] |
| 253 to 255 | O=C(Nc1ccc(C(F)(F)F)cc1)c1cnc(Cc2c(Cl)cccc2Cl)[nH]1 [Example 11, {2-[(2,6-Dichlorophenyl)methyl]imidazol-5-yl}-N-[4-(trifluoromethyl)-phenyl]carboxamide] |
| 151 to 162 | O=C(Nc1ccc(C(F)(F)F)cc1)c1nc(Nc2c(Cl)cccc2Cl)sc1Br [Example 14, {2-[(2,6-Dichlorophenyl)amino]-5-bromo(1,3-thiazol-4-yl)}-N-[4-(trifluoromethyl)phenyl]carboxamide] |
| 242 to 243 | FC(F)(F)c1ccc2nc(-c3csc(Nc4c(Cl)cccc4Cl)n3)[nH]c2c1 [Example 15, (2,6-Dichloro-phenyl)-[4-(6-trifluoromethyl-1H-benzoimidazol-2-yl)-thiazol-2-yl]-amine] |
| 113 to 116 | O=C(Nc1ccc(F)c(F)c1)c1csc(Cc2c(Cl)cccc2Cl)n1 [Example 17, {2-[(2,6-Dichlorophenyl)methyl](1,3-thiazol-4-yl)}-N-(3,4-difluorophenyl)-carboxamide] |
| 245 to 247 | Clc1cc2nc(-c3csc(Cc4c(Cl)cccc4Cl)n3)[nH]c2cc1Cl [Example 18, 4-(5,6-Dichlorobenzimidazol-2-yl)-2-[(2,6-dichlorophenyl)methyl]-1,3-thiazole] |
| 182 to 184 | O=C(Nc1ccc(C(F)(F)F)cc1)c1coc(Cc2c(Cl)cccc2Cl)n1 [Example 19, {2-[(2,6-Dichlorophenyl)methyl](1,3-oxazol-4-yl)}-N-[4-(trifluoromethyl)-phenyl]carboxamide] |
| 281 to 282 | FC(F)(F)c1ccc2nc(-c3c[nH]c(Cc4c(Cl)cccc4Cl)n3)[nH]c2c1 [Example 20, 2-{2-[(2,6-Dichlorophenyl)methyl]imidazol-4-yl}-6-(trifluoromethyl)-benzimidazole] |
| 201 to 202 | FC(F)(F)c1ccc2nc(-c3coc(Cc4c(Cl)cccc4Cl)n3)[nH]c2c1 [Example 21, 2-[(2,6-Dichlorophenyl)methyl]-4-[6-(trifluoromethyl)benzimidazol-2-yl]-1,3-oxazole] |
| 98.8 to 106.9 | CC(=O)c1ccc(NC(=O)c2csc(Cc3c(Cl)cccc3Cl)n2)cc1 [Example 22] |

| melting point [°C] | SMILES |
| --- | --- |
| 137.7 to 138.8 | COc1ccc(NC(=O)c2csc(Cc3c(Cl)cccc3Cl)n2)cn1 [Example 23] |
| 139.1 to 147.1 | O=C(Nc1ccc(C(F)(F)F)nc1)c1csc(Cc2c(Cl)cccc2Cl)n1 [Example 24] |
| 85.4 to 92.7 | CC(C)c1ccc(NC(=O)c2csc(Cc3ccccc3Cl)n2)cc1 [Example 25] |
| 85.5 to 94 | O=C(Nc1ccc(C(F)(F)F)cc1)c1csc(Cc2ccccc2Cl)n1 [Example 26] |
| 104.8 to 107.7 | O=C(Nc1ccc(C(F)(F)F)nc1)c1csc(Cc2ccccc2F)n1 [Example 31] |
| 100.8 to 101 | O=C(Nc1ccc(Br)cc1)c1csc(Cc2ccccc2F)n1 [Example 32] |
| 109.4 to 110.6 | O=C(Nc1ccc(Br)cc1)c1csc(Cc2ccccc2Cl)n1 [Example 33] |
| 111.8 to 112.5 | O=C(Nc1ccc(Br)cc1)c1csc(Cc2c(F)cccc2Cl)n1 [Example 34] |
| 123.4 to 125.1 | O=C(Nc1ccc(C(F)(F)F)nc1)c1csc(Cc2c(F)cccc2Cl)n1 [Example 35] |
| 138 to 138.4 | COc1ccccc1Cc1nc(C(=O)Nc2ccc(Br)cc2)cs1 [Example 36] |
| 121.9 to 123.4 | Cc1ccccc1Cc1nc(C(=O)Nc2ccc(Br)cc2)cs1 [Example 37] |
| 107.2 to 108.2 | COc1ccccc1Cc1nc(C(=O)Nc2ccc(C(F)(F)F)cc2)cs1 [Example 38] |
| 140.2 to 141.3 | Cc1ccccc1Cc1nc(C(=O)Nc2ccc(C(F)(F)F)nc2)cs1 [Example 39] |
| 126.6 to 132 | O=C(Nc1ccc(Br)cc1)c1csc(Cc2c(Cl)cccc2Cl)n1 [Example 40] |
| 197 to 197.8 | O=C(Nc1ccc(C(O)(C(F)(F)F)C(F)(F)F)cc1)c1csc(Cc2c(Cl)cccc2Cl)n1 [Example 43] |
| 95 to 96.4 | O=C(Nc1ccc(C(F)(F)C(F)(F)F)cc1)c1csc(Cc2c(Cl)cccc2Cl)n1 [Example 47] |
| 139 to 141 | CC(C)(C)c1ccc(NC(=O)c2csc(Cc3c(Cl)cccc3Cl)n2)cc1 [Example 49] |
| 172 to 174 | CN(C)c1ccc(NC(=O)c2csc(Cc3c(Cl)cccc3Cl)n2)cc1 [Example 50] |
| 232.5 to 234.3 | O=C(Nc1ccc(C(F)(F)F)cc1)c1csc(Nc2cccnc2Cl)n1 [Example 51] |
| 214.7 to 216.2 | O=C(Nc1ccc(Br)cc1)c1csc(Nc2cccnc2Cl)n1 [Example 52] |

| melting point [°C] | SMILES |
| --- | --- |
| 194.9 to 196.6 | O=C(Nc1ccc(Br)cc1)c1csc(Nc2c(Cl)cncc2Cl)n1 [Example 53] |
| 158 to 160 | O=C(Nc1ccc(C(O)(C(F)(F)F)C(F)(F)F)cc1)c1csc(Nc2ccccc2F)n1 [Example 54] |
| 198.4 to 199.7 | O=C(Nc1ccc(Br)cc1)c1csc(Nc2ccccc2F)n1 [Example 55] |
| 125.9 to 126.9 | O=C(Nc1ccc(Br)cc1)c1csc(Nc2c(Cl)cccc2Cl)n1 [Example 56] |
| 136.5 to 180.1 | CC(C)c1ccc(NC(=O)c2csc(Nc3ccccc3F)n2)cc1 [Example 58] |
| 220.5 to 221.3 | O=C(Nc1ccc(Br)cc1)c1csc(Nc2ccccc2Cl)n1 [Example 60] |
| 192.5 to 193.1 | O=C(Nc1ccc(C(F)(F)F)cc1)c1csc(Nc2ccccc2Cl)n1 [Example 61] |
| 199 to 200 | O=C(Nc1ccc(C(F)(F)F)cc1)c1csc(Nc2c(Cl)cccc2Cl)n1 [Example 63, {2-[(2,6-dichlorophenyl)amino](1,3-thiazol-4-yl)}-N-[4-(trifluoromethyl)phenyl]-carboxamide] |
| 128 to 133 | Cc1cccc(C)c1Nc1nc(C(=O)Nc2ccc(C(C)C)cc2)cs1 [Example 64] |
| 208 to 209 | Cc1cccc(C)c1Nc1nc(C(=O)Nc2ccc(Br)cc2)cs1 [Example 65] |
| 128 to 130 | O=C(Nc1ccc(C(F)(F)F)cc1)c1csc(Nc2ccccc2C(F)(F)F)n1 [Example 66] |
| 96 to 100 | CC(C)c1ccc(NC(=O)c2csc(Nc3ccccc3C(F)(F)F)n2)cc1 [Example 67] |
| 151 to 153 | O=C(Nc1ccc(Br)cc1)c1csc(Nc2ccccc2C(F)(F)F)n1 [Example 68] |
| 262 to 264 | O=C(Nc1ccc(Br)cc1)c1csc(Nc2c(Cl)cccc2C(F)(F)F)n1 [Example 69] |
| 216 to 218 | CC(C)c1ccc(NC(=O)c2csc(Nc3c(Cl)cccc3C(F)(F)F)n2)cc1 [Example 70] |
| 243 to 244 | O=C(Nc1ccc(C(F)(F)F)cc1)c1csc(Nc2c(Cl)cccc2C(F)(F)F)n1 [Example 71] |
| 211 to 212 | FC(F)(F)c1ccc2[nH]c(-c3csc(Nc4ccccc4C(F)(F)F)n3)nc2c1 [Example 72] |
| 188 to 210 | FC(F)(F)c1ccc2[nH]c(-c3csc(Nc4c(Cl)cccc4C(F)(F)F)n3)nc2c1 [Example 73] |
